From patent US9951039B2, “Pyrimidines for treatment of bacterial infections” (The Hong Kong Polytechnic University, priority 2016, dated 2018) come the findings set out here.

Values after ≈ are worked out from the molar mass of the structure shown.

In assay [1] the test system is S. aureus ATCC BAA-41 (methicillin resistant). Put plainly: MIC against clinically isolated strain 4. It is filed as cell-based. Particulars: Staphylococcus aureus, ATCCBAA41. The protocol: (§1) Procedure of Antimicrobial susceptibility test: The MIC value of compounds was measured in the antimicrobial susceptibility test using the broth microdilution procedure in accordance with the CLSI guidelines.^21 Cation-adjusted Mueller Hinton broth (CA-MHB) was used for all the S. aureus strains in the assay. Cells in exponential phase of growth were diluted to approximately 5×10^5 cfu/mL. Stock solutions of each compound were freshly dissolved in dimethyl sulfoxide (DMSO). Then, serial dilutions of each compound in CA-MHB medium were added into 96-well microplate. The final percentage of DMSO in the assay was 1%. Control experiments were performed with 1% DMSO instead of the compound solution. After being incubated at 37° C. for 18 h, OD600 value of cells was measured on a microplate reader and the percentage of bacterial cell inhibition with respect to controls was calculated. The MIC value was defined as the lowest compound concentration at which the growth of bacteria was inhibited by ≥90%. Three independent assays were performed for each compound.
(§2) Results: Three compounds, namely 14av_amine16, 14dv_amine16 and 14dv_amine06, were selected to be tested against nine in-house clinically isolated bacterial strains including S. aureus ATCC29247, which is an ampicillin resistant strain, S. aureus ATCC BAA-41, ATCC BAA-1717, ATCC BAA-1720, ATCC 43300 which are methicillin resistant strains and four USA300 strains, (#417, #757, #1799 and #2690), which are the predominant strain type of community-associated MRSA strains in the United States.

The target in assay [2] is T1, S. aureus FtsZ (Staphylococcus aureus, UniProt P0A031).
T1 construct: 6-histidine tag; made in house; host or cells: E. coli BL21(DE3)
T1 sequence (P0A031 1-390): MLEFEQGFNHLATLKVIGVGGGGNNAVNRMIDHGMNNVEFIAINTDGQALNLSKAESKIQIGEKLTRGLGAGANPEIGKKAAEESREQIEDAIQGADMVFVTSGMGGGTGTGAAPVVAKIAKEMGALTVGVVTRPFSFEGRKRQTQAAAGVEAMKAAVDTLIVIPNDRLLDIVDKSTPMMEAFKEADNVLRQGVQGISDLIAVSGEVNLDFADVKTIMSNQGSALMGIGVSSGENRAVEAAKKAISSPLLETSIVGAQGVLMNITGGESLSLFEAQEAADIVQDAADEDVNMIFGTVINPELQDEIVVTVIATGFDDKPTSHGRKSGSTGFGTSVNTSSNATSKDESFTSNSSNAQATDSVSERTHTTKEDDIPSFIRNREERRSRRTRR
The experiment in a line: GTPase hydrolysis assay (CytoPhos phosphate assay). It is filed as biochemical. The protocol: Procedure for expression and purification of S. aureus FtsZ protein: S. aureus FtsZ protein was prepared as previous reported.^16a In brief, E. coli BL21(DE3) cells, transformed with a pRSET-A-S vector carrying S. aureus FtsZ with a 6-histidine tag attached, were streaked on a nutrient agar plate containing 50 μg/mL ampicillin. After overnight incubation at 37° C., a single colony was inoculated into 5 mL of Luria-Bertani (LB) medium in the presence of 50 μg/mL ampicillin, which was then incubated at 37° C., with shaking at 250 rpm for 16 h. The overnight culture was transferred into a fresh 2×TY medium in a dilution ratio of 1:100 and 50 μg/mL ampicillin was then added, followed by incubation at 37° C. with shaking at 250 rpm. When OD600 reached 0.8, protein expression was induced with 0.4 mM isopropyl-β-D-thiogalactopyranoside (IPTG) for 4 h. Cells were harvested by centrifugation at 9000 rpm for 20 min at 4° C. […]
Procedure: The inhibitory effect of compound 14av_amine16 on GTPase hydrolysis activity was investigated according to the protocol described previously.^18 The GTPase activity of S. aureus FtsZ was estimated in a 96-well microplate using a CytoPhos phosphate assay Biochem Kit based on the manufacturer's instructions. […] The precipitated inorganic phosphate was quantified by measuring the absorbance at 650 nm in a microplate reader. […]

Assay [3] concerns S. aureus ATCC 43300 (methicillin resistant). Put plainly: MIC against clinically isolated strain 5. It is filed as cell-based. Particulars: Staphylococcus aureus, ATCC43300. On the procedure:
as §1, §2

Assay [4] concerns S. aureus ATCC BAA-1717 (methicillin resistant). The experiment in a line: MIC against clinically isolated strain 2. In kind it is cell-based. Particulars: Staphylococcus aureus, ATCCBAA1717. The protocol:
as §1, §2

In assay [5] the test system is USA300 #2690 (community-associated MRSA). Put plainly: MIC against clinically isolated strain 9. In kind it is cell-based, S. aureus. Particulars: Staphylococcus aureus. On the procedure:
as §1, §2

As for `CCC(CC)c1cc(CCN2CCCN(Cc3ccc(C(F)(F)F)cc3)CC2)nc(-c2ccncc2)n1` [Compound 14av_amine16, 1-(2-(6-(pentan-3-yl)-2-(pyridin-4-yl)pyrimidin-4-yl)ethyl)-4-(4-(trifluoromethyl)benzyl)-1,4-diazepane], the MIC was 12 µM (≈ 6.14 µg/mL) in assay [1], 12 µM (≈ 6.14 µg/mL) in assay [3], 8 µM (≈ 4.09 µg/mL) in assay [4] and 12 µM (≈ 6.14 µg/mL) in assay [5]. Besides, the inhibition at 50 µM in assay [2] (compound at 50 μM) is around 20%. The same compound showed an inhibition at 75 µM in assay [2] (compound at 75 μM) of around 25%.
